Results taken from US12172959B2, “Mono- or di-substituted indole derivatives as dengue viral replication inhibitors” (priority 2015, dated 2024).

How the values were obtained:
Assay type in all cases: cell-based
[1] = system: DENV-2 strain 16681; test: Tetravalent RT-qPCR assay Protocol A, serotype 2; details: Dengue virus, DENV2, 72 h; Protocol A, RT-qPCR serotype 2 16681, Vero cells, day 3; read-out: EC50
In short: (§1)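 Vero cells in MEM with 2% FCS were infected with DENV in the presence of compound and incubated for 3 days at 37° C. Lysates underwent RT and duplex qPCR for the viral 3′UTR and β-actin. EC50 came from ΔΔCp normalized to β-actin, and CC50 from the β-actin signal.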

[2] = system: DENV-4 strain H241; test: Tetravalent RT-qPCR assay Protocol A, serotype 4 H241; details: Dengue virus, DENV4, 72 h; Protocol A, RT-qPCR serotype 4 H241, Vero cells, day 3; read-out: EC50
In short: as §1

[3] = system: DENV-2 strain NGC; test: Tetravalent RT-qPCR assay Protocol B, serotype 2; details: Dengue virus, DENV2, 96 h, RT-qPCR serotype 2 NGC-Tongalike, 4 days
Experimental: The antiviral activity of the compounds of the invention was tested against DENV-1 strain Djibouti strain (D1/H/IMTSSA/98/606; Table 6), DENV-2 strain NGC (Table 7), DENV-3 strain H87 (Table 8) and DENV-4 strain SG/06K2270DK1/2005 (Table 9B) in a RT-qPCR assay. Vero-B or Vero-M cells (5×10^4) were seeded in 96-well plates. One day later, culture medium was replaced with 100 μL assay medium containing a 2×, 3× or 5× serial dilution of the compound (concentration range: 50 μg/mL-0.00038 μg/mL, 50 μg/mL-0.0076 μg/mL, and 50 μg/mL-0.00013 μg/mL, respectively) and 100 μL of dengue virus inoculum (DENV). Following a 2 hour incubation period, the cell monolayer was washed 3 times with assay medium to remove residual, non-adsorbed virus and cultures were further incubated for either 4 days (DENV-2 NGC) or 7 days (DENV-1 Djibouti strain D1/H/IMTSSA/98/606, DENV-3 strain H87 prototype, DENV-4 strain H241, and DENV-4 strain EDEN) in the presence of the inhibitor. Supernatant was harvested and viral RNA load was determined by real-time quantitative RT-PCR. The 50% effective concentration (EC50), which is defined as the compound concentration that is required to inhibit viral RNA replication by 50%, was determined using logarithmic interpolation.
RNA was isolated from 100 μL (or in some circumstances 150 μL) supernatant with the NucleoSpin 96 Virus kit (Filter Service, Duren, Germany) as described by the manufacturer. The sequences of the TaqMan primers (DENV-For, DENV-Rev; Table 5) and TaqMan probes (DENV-Probe Table 5) were selected from non-structural gene 3 (NS3) or NS5, of the respective flaviviruses using Primer Express software (version 2.0; Applied Biosystems, Lennik, Belgium). The TaqMan probe was fluorescently labelled with 6-carboxyfluorescein (FAM) at the 5′ end as the reporter dye, and with minor groove binder (MGB) at the 3′ end as the quencher (Table 5). One-step, quantitative RT-PCR was performed in a total volume of 25 μL, containing 13.9375 μL H2O, 6.25 μL master mix (Eurogentec, Seraing, Belgium), 0.375 μL forward primer, 0.375 μL reverse primer, 1 μL probe, 0.0625 μL reverse transcriptase (Eurogentec) and 3 μL sample. RT-PCR was performed using the ABI 7500 Fast Real-Time PCR System (Applied Biosystems, Branchburg, New Jersey, USA) using the following conditions: 30 min at 48° C. and 10 min at 95° C., followed by 40 cycles of 15 s at 95° C. and 1 min at 60° C. The data was analyzed using the ABI PRISM 7500 SDS software (version 1.3.1; Applied Biosystems). For absolute quantification, standard curves were generated using 10-fold dilutions of template preparations of known concentrations.

SMILES	EC50 [1] [nM]	EC50 [2] [nM]	EC50 [3] [nM]
COc1cc(NC(C(=O)c2c[nH]c3c(C)c(OC)ccc23)c2ccc(Cl)cc2OC)cc(S(C)(=O)=O)c1 (single isomer, unassigned) [Compound 6A, 2-(4-chloro-2-methoxyphenyl)-2-((3-methoxy-5-(methyl-sulfonyl)phenyl)amino)-1-(6-methoxy-7-methyl-1H-indol-3-yl)ethanone]	0.11	95	< 0.24
COc1cc(NC(C(=O)c2c[nH]c3c(C)c(F)ccc23)c2ccc(Cl)cc2OC)cc(S(C)(=O)=O)c1 (single isomer, unassigned) [Compound 2A, 2-(4-chloro-2-methoxyphenyl)-1-(6-fluoro-7-methyl-1H-indol-3-yl)-2-((3-methoxy-5-(methylsulfonyl)phenyl)amino)ethanone]	0.24	83	< 0.24
COc1cc(NC(C(=O)c2c[nH]c3cc(OC)c(F)cc23)c2ccc(Cl)cc2OC)cc(S(C)(=O)=O)c1 (single isomer, unassigned) [Compound 5A, 2-(4-chloro-2-methoxyphenyl)-1-(5-fluoro-6-methoxy-1H-indol-3-yl)-2-((3-methoxy-5-(methylsulfonyl)phenyl)amino)ethanone]	0.34	100	< 0.23
COc1cc(NC(C(=O)c2c[nH]c3cc(OC)c(C)cc23)c2ccc(Cl)cc2OC)cc(S(C)(=O)=O)c1 (single isomer, unassigned) [Compound 4A, 2-(4-chloro-2-methoxyphenyl)-2-((3-methoxy-5-(methyl-sulfonyl)phenyl)amino)-1-(6-methoxy-5-methyl-1H-indol-3-yl)ethanone]	0.2	53	0.32
COc1cc(NC(C(=O)c2c[nH]c3cc(F)ccc23)c2ccc(Cl)cc2OC)cc(S(C)(=O)=O)c1 (single isomer, unassigned) [Compound 1A, 2-(4-chloro-2-methoxyphenyl)-1-(6-fluoro-1H-indol-3-yl)-2-((3-methoxy-5-(methylsulfonyl)phenyl)amino)ethanone]	0.28	93	< 0.27
